Results as given in patent US9902722B2, “Biaryl kinase inhibitors” (BRISTOL-MYERS SQUIBB COMPANY, priority 2014, dated 2018).

The compounds below were run against GST-Xa-hAAK1 (Homo sapiens (Human), UniProt Q2M2I8) (assay: AAK1 Kinase Assay). Conditions: bacterially expressed GST-Xa-hAAK1 3.5 nM; ATP 22 μM; peptide substrate 1.5 μM; 3 hours at room temperature; Caliper LabChip 3000.
Assay type: biochemical
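Further: each compound tested across an eleven-point concentration series, with IC50 obtained through non-linear regression fitting.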

Sequence of GST-Xa-hAAK1 (Q2M2I8 whole entry): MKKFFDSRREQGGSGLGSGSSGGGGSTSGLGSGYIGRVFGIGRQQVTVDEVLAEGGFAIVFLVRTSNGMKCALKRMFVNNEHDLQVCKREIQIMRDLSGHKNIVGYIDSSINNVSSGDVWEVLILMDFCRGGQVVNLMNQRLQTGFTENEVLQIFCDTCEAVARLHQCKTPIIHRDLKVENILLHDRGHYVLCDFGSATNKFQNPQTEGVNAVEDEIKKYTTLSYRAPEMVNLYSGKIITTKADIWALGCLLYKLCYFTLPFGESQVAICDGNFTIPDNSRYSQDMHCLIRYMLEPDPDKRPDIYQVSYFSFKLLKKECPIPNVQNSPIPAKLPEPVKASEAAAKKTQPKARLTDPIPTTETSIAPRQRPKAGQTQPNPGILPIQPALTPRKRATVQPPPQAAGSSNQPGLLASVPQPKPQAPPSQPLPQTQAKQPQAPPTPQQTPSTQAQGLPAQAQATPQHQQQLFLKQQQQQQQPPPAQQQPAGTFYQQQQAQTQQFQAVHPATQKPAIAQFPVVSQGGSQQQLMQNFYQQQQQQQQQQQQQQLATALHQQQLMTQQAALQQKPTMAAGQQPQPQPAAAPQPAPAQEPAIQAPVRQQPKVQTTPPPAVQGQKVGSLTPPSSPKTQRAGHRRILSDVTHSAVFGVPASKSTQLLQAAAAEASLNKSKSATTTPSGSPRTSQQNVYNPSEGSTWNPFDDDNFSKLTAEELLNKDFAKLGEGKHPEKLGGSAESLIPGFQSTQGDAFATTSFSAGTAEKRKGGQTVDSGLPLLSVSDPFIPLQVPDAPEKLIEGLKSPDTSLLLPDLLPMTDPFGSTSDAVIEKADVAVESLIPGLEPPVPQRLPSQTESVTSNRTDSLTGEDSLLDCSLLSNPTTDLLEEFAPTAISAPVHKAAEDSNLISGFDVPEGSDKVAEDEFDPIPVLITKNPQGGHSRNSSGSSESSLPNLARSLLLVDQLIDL

SMILES	IC50 [nM]
CC(C)C[C@@](C)(N)COc1cnc(-c2ccnc(C(F)F)c2)cc1C(F)F [Example 175, (R)-1-((2′,4-bis(difluoromethyl)-[2,4′-bipyridin]-5-yl)oxy)-2,4-dimethylpentan-2-amine]	17
Cc1cc(-c2ccc(OC[C@@](C)(N)CC(C)C)c(S(C)(=O)=O)c2)ccn1 [Example 114, (S)-2,4-dimethyl-1-(4-(2-methylpyridin-4-yl)-2-(methylsulfonyl)phenoxy)pentan-2-amine]	1400
Cc1cc(-c2ccc(OC[C@@](C)(N)CC(C)C)c(F)c2)ccn1 [Example 91, (S)-1-(2-fluoro-4-(2-methylpyridin-4-yl)phenoxy)-2,4-dimethylpentan-2-amine]	12.1
COC(=O)Nc1cc(-c2ccc(OC[C@@](C)(N)CC(C)C)c3ccccc23)ccn1 [Example 208, (S)-methyl (4-(4-((2-amino-2,4-dimethylpentyl)oxy)naphthalen-1-yl)pyridin-2-yl)carbamate]	4.6
CC(C)C[C@](N)(CF)COc1cnc(-c2ccnc(C(F)F)c2)cc1C(F)F [Example 186, (R)-1-((2′,4-bis(difluoromethyl)-[2,4′-bipyridin]-5-yl)oxy)-2-(fluoromethyl)-4-methylpentan-2-amine]	18
Cc1nc(-c2ccnc3ccccc23)ccc1OC[C@@](C)(N)CC(C)C [Example 81, (S)-2,4-dimethyl-1-((2-methyl-6-(quinolin-4-yl)pyridin-3-yl)oxy)pentan-2-amine]	7.8
Cc1cc(-c2ccc(OC[C@@](C)(N)CC(C)C)c(C(F)(F)F)c2)c2ccccc2n1 [Example 216, (S)-2,4-dimethyl-1-(4-(2-methylquinolin-4-yl)-2-(trifluoromethyl)phenoxy)pentan-2-amine]	25
CC(C)C[C@@](C)(N)COc1ccc(-c2ccnc(C(F)F)c2)nc1C(F)F [Example 174, (R)-1-((2′,6-bis(difluoromethyl)-[2,4′-bipyridin]-5-yl)oxy)-2,4-dimethylpentan-2-amine]	54
Cc1cc(-c2cnc(OC[C@@](C)(N)CC(C)C)c(F)c2)ccn1 [Example 97, (S)-1-((5-fluoro-2′-methyl-[3,4′-bipyridin]-6-yl)oxy)-2,4-dimethylpentan-2-amine]	142
CC(C)C[C@](C)(N)COc1ccc(C2=CCOCC2)cc1C(F)(F)F [Example 215, (S)-1-(4-(3,6-dihydro-2H-pyran-4-yl)-2-(trifluoromethyl)phenoxy)-2,4-dimethylpentan-2-amine]	197
Cc1cc(-c2cc(C(F)(F)F)c(OC[C@](C)(N)CC(C)C)cn2)ccn1 [Example 164, (R)-2,4-dimethyl-1-((2′-methyl-4-(trifluoromethyl)-[2,4′-bipyridin]-5-yl)oxy)pentan-2-amine]	254
COC(=O)Nc1nccc(-c2ccc(OC[C@@](C)(N)CC(C)C)c(C)n2)c1F [Example 157, (S)-methyl (5-((2-amino-2,4-dimethylpentyl)oxy)-3′-fluoro-6-methyl-[2,4′-bipyridin]-2′-yl)carbamate]	19
Cc1cc(-c2ccnc(F)c2)ccc1OC[C@@](C)(N)CC(C)C [Example 92, (S)-1-(4-(2-fluoropyridin-4-yl)-2-methylphenoxy)-2,4-dimethylpentan-2-amine]	5.4
COC(=O)Nc1cc(-c2ncc(OC[C@@](C)(N)CC(C)C)cn2)ccn1 [Example 210, (S)-methyl (4-(5-((2-amino-2,4-dimethylpentyl)oxy)pyrimidin-2-yl)pyridin-2-yl)carbamate]	79
COc1cc(-c2ccnc(C(F)F)c2)ncc1OC[C@@](C)(N)CC(C)C [Example 207, (S)-1-((2′-(difluoromethyl)-4-methoxy-[2,4′-bipyridin]-5-yl)oxy)-2,4-dimethylpentan-2-amine]	19
COC(=O)Nc1cc(-c2ccc(OCC3(CC(C)C)CNC3)c(C)n2)ccn1 [Example 108, methyl (5-((3-isobutylazetidin-3-yl)methoxy)-6-methyl-[2,4′-bipyridin]-2′-yl)carbamate]	106
Cc1cc(-c2cc(C)c(OC[C@@](C)(N)CC(C)C)c(F)n2)ccn1 [Example 107, (S)-1-((6-fluoro-2′,4-dimethyl-[2,4′-bipyridin]-5-yl)oxy)-2,4-dimethylpentan-2-amine]	50
Cc1cc(-c2ccc(OC[C@@H](N)CC(C)C)c(C#N)c2)cnn1 [Example 109, (S)-2-((2-amino-4-methylpentyl)oxy)-5-(6-methylpyridazin-4-yl)benzonitrile]	340

The next compounds have a lower IC50 than those just listed; values first:

IC50 [nM]	SMILES
0.92	CC(C)C[C@](C)(N)COc1ncc(-c2ccnc3cc(F)cc(F)c23)cc1C#N [Example 77, (S)-2-((2-amino-2,4-dimethylpentyl)oxy)-5-(5,7-difluoroquinolin-4-yl)nicotinonitrile]
0.59	CC(C)C[C@](C)(N)COc1ncc(-c2ccnc3ccccc23)cc1C(F)(F)F [Example 219, (S)-2,4-dimethyl-1-((5-(quinolin-4-yl)-3-(trifluoromethyl)pyridin-2-yl)oxy)pentan-2-amine]
1.2	Cc1cc(-c2ccc(OC[C@@](C)(N)CC(C)C)c(C(F)(F)F)c2)ccn1 [Example 45, (S)-2,4-dimethyl-1-(4-(2-methylpyridin-4-yl)-2-(trifluoromethyl)phenoxy)pentan-2-amine]
3.2	Cc1cc(-c2ccc(OC[C@@](C)(N)CC(C)C)c(C(F)F)n2)ccn1 [Example 119, (S)-1-((6-(difluoromethyl)-2′-methyl-[2,4′-bipyridin]-5-yl)oxy)-2,4-dimethylpentan-2-amine]
0.7	Cc1ccc2c(-c3cnc(OC[C@@](C)(N)CC(C)C)c(C(F)F)c3)ccnc2c1 [Example 205, (S)-1-((3-(difluoromethyl)-5-(7-methylquinolin-4-yl)pyridin-2-yl)oxy)-2,4-dimethylpentan-2-amine]
0.89	CC(C)C[C@](C)(N)COc1ccc(-c2ccnc(C(F)F)c2)cc1C#N [Example 36, (S)-2-((2-amino-2,4-dimethylpentyl)oxy)-5-(2-(difluoromethyl)pyridin-4-yl)benzonitrile]
0.98	CC(C)C[C@](C)(N)COc1cnc(-c2ccnc3ccccc23)cc1Cl [Example 236, (S)-1-((4-chloro-6-(quinolin-4-yl)pyridin-3-yl)oxy)-2,4-dimethylpentan-2-amine]
0.76	CC(C)C[C@](C)(N)COc1ccc(-c2ccnc3ccccc23)cc1C(F)(F)F [Example 69, (S)-2,4-dimethyl-1-(4-(quinolin-4-yl)-2-(trifluoromethyl)phenoxy)pentan-2-amine]
0.24	CC(C)C[C@](C)(N)COc1cnc(-c2ccnc3ccccc23)cc1C(F)(F)F [Example 145, (S)-2,4-dimethyl-1-((6-(quinolin-4-yl)-4-(trifluoromethyl)pyridin-3-yl)oxy)pentan-2-amine]
1.6	Cc1cc(-c2ccnc(C(F)F)c2)ncc1OC[C@@](C)(N)CC(C)C [Example 125, (S)-1-((2′-(difluoromethyl)-4-methyl-[2,4′-bipyridin]-5-yl)oxy)-2,4-dimethylpentan-2-amine]
2.2	Cc1cc(-c2cc(C(F)F)c(OC[C@](N)(CF)CC(C)C)cn2)ccn1 [Example 187, (S)-1-((4-(difluoromethyl)-2′-methyl-[2,4′-bipyridin]-5-yl)oxy)-2-(fluoromethyl)-4-methylpentan-2-amine]
2.7	CC(=O)Nc1cc(-c2ccc(OC[C@@H](N)CC(C)C)c(F)c2)ccn1 [Example 1, (S)—N-(4-(4-((2-amino-4-methylpentyl)oxy)-3-fluorophenyl)pyridin-2-yl)acetamide]
1.2	COC(=O)Nc1cc(-c2ccc(OC[C@@](C)(N)CC(C)C)c(F)c2)ccn1 [Example 28, (S)-methyl (4-(4-((2-amino-2,4-dimethylpentyl)oxy)-3-fluorophenyl)pyridin-2-yl)carbamate]
1.5	CC(C)C[C@](C)(N)COc1cnc(-c2ccnc3ccc(F)cc23)cc1C(F)F [Example 132, (S)-1-((4-(difluoromethyl)-6-(6-fluoroquinolin-4-yl)pyridin-3-yl)oxy)-2,4-dimethylpentan-2-amine]
0.93	Cc1cc(-c2ccnc3cc(F)ccc23)ncc1OC[C@@](C)(N)CC(C)C [Example 227, (S)-1-((6-(7-fluoroquinolin-4-yl)-4-methylpyridin-3-yl)oxy)-2,4-dimethylpentan-2-amine]
0.41	Cc1cc(-c2ccnc3cc(F)ccc23)ncc1OC[C@@](C)(N)CC(C)C [Example 232, (S)-1-((6-(7-fluoroquinolin-4-yl)-4-methylpyridin-3-yl)oxy)-2,4-dimethylpentan-2-amine]
0.32	CC(C)C[C@](C)(N)COc1ccc(-c2ccnc3ccncc23)cc1C(F)(F)F [Example 85, (S)-1-(4-(1,6-naphthyridin-4-yl)-2-(trifluoromethyl)phenoxy)-2,4-dimethylpentan-2-amine]
1.5	Cc1cc(-c2cnc(OC[C@@](C)(N)CC(C)C)c(C(F)F)c2)ccn1 [Example 194, (S)-1-((5-(difluoromethyl)-2′-methyl-[3,4′-bipyridin]-6-yl)oxy)-2,4-dimethylpentan-2-amine]
0.87	COC(=O)Nc1cc(-c2ccc(OC[C@@H](N)CC(C)C)c(-c3ccno3)c2)ccn1 [Example 14, (S)-methyl (4-(4-((2-amino-4-methylpentyl)oxy)-3-(isoxazol-5-yl)phenyl)pyridin-2-yl)carbamate]
0.65	COC(=O)Nc1cc(-c2ccc(OC[C@@](C)(N)CC(C)C)c(Cl)n2)ccn1 [Example 66, (S)-methyl (5-((2-amino-2,4-dimethylpentyl)oxy)-6-chloro-[2,4′-bipyridin]-2′-yl)carbamate]
0.53	CC(=O)Nc1cc(-c2ccc(OC[C@@H](N)CC(C)C)c(Cl)c2)ccn1 [Example 8, (S)—N-(4-(4-((2-amino-4-methylpentyl)oxy)-3-chlorophenyl)pyridin-2-yl)acetamide]
0.38	Cc1cc(-c2ccc(OC[C@@](C)(N)CC(C)C)c(C(F)F)c2)ccn1 [Example 50, (S)-1-(2-(difluoromethyl)-4-(2-methylpyridin-4-yl)phenoxy)-2,4-dimethylpentan-2-amine]
